Results on 25 molecules are retold here after US20230059136A1, “THE COMPOUNDS AND COMPOSITIONS FOR TREATING CONDITIONS ASSOCIATED WITH NLRP ACTIVITY” (Novartis AG, priority 2018, published 2023).

One test has as its system IL-1β production in PMA-differentiated THP-1 cells. The test is described as follows: IL-1β production in PMA-differentiated THP-1 cells stimulated with gramicidin (hTHP-1 assay containing 2% fetal bovine serum). It counts as cell-based, human. As to conditions: Homo sapiens, THP-1, Table B1; 2% fetal bovine serum; cells printed as numeric bound; read-out: hTHP-1 IC50 (Average IC50 of compounds in hTHP-1 assay). In short, it runs like this:
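IL-1β release was read by HTRF on supernatants of 50,000 PMA-primed (20 ng/ml, 16-18 h) THP-1 cells/well in 2% FBS medium. Cells saw compound for 1 h (11-point titration from 100 μM, 0.37% DMSO) before a 2 h gramicidin (5 μM) challenge.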
Usually IC50 stands for the concentration that inhibits the measured activity by half. Consider `CC(C)c1cc(C(F)F)nc(C(C)C)c1CC(=O)N=S(N)(=O)c1ccc(CN(C)C)cc1` (single isomer, unassigned) [Example 332, (S) or (R)-N-(amino(4-((dimethylamino)methyl)phenyl)(oxo)-λ^6-sulfaneylidene)-2-(6-(difluoromethyl)-2,4-diisopropylpyridin-3-yl)acetamide], for which the IC50 was above 30 µM.

In the case of `CC(C)c1cc2c(cnn2C)c(C(C)C)c1CC(=O)N=S(N)(=O)c1ncc(C(C)(C)O)s1` (stereo not shown) [Compound 1341], the IC50 was above 30 µM.

As to `CC(C)(O)c1ncc([S@](N)(=O)=NC(=O)Cc2cc3c(c4c2CCC4)CCC3)s1` [Compound 259b], the half-maximal inhibitory concentration (IC50) was above 30 µM.

Still in this test, the particulars now being: Homo sapiens, THP-1, Table B1; 2% fetal bovine serum; class symbols; read-out: hTHP-1 IC50 (Average IC50 of compounds in hTHP-1 assay).
Turning to `CC(C)c1cc(-c2ccc3c(c2)OC(F)(F)O3)cc(C(C)C)c1CC(=O)N=S(N)(=O)c1ncc(C(C)(C)O)s1` (stereo not shown) [Example 117, N-(amino(5-(2-hydroxypropan-2-yl)thiazol-2-yl)(oxo)-λ^6-sulfaneylidene)-2-(4-(2,2-difluorobenzo[d][1,3]dioxol-5-yl)-2,6-diisopropylphenyl) acetamide], the IC50 fell in the range of 0.04 to 0.2 µM.

`CC(C)c1cc(F)cc(C(C)C)c1CC(=O)N=[S@](=O)(NC#N)c1ncc(C(C)(C)O)s1` [Example 341, (S)—N-(cyanamido(5-(2-hydroxypropan-2-yl)thiazol-2-yl)(oxo)-λ^6-sulfaneylidene)-2-(4-fluoro-2,6-diisopropylphenyl)acetamide]: the half-inhibitory concentration (IC50) was 0.2 to 1 µM.

Turning to `CC(C)c1cc2c(c(C(C)C)c1CC(=O)N=S(N)(=O)c1cnn3c1OCCC3)COC2` (stereo not shown) [Example 267, N-(amino(6,7-dihydro-5H-pyrazolo[5,1-b][1,3]oxazin-3-yl)(oxo)-λ^6-sulfaneylidene)-2-(4,6-diisopropyl-1,3-dihydroisobenzofuran-5-yl)acetamide], the 50% inhibitory concentration (IC50) is 5 to 30 µM.

As for `CC(C)c1cc2c(c(C(C)C)c1CC(=O)N=S(N)(=O)c1ccc(CN(C)C)cc1)COC2` (single isomer, unassigned) [Example 191, (R) or (S)-N-(amino(4-((dimethylamino)methyl)phenyl)(oxo)-λ^6-sulfaneylidene)-2-(4,6-diisopropyl-1,3-dihydroisobenzofuran-5-yl)acetamide], the IC50 lay within 1 to 5 µM.

Turning to `CC(C)c1cc2c(c(C(C)C)c1CC(=O)N=S(N)(=O)c1cnc(C(C)(C)O)s1)COC2=O` (single isomer, unassigned) [Example 317, (R) or (S)-N-(amino(2-(2-hydroxypropan-2-yl)thiazol-5-yl)(oxo)-λ^6-sulfaneylidene)-2-(4,6-diisopropyl-1-oxo-1,3-dihydroisobenzofuran-5-yl)acetamide], the IC50 was 1 to 5 µM.

For `CC(C)c1cc2c(c(C(C)C)c1CC(=O)N=S(N)(=O)c1cnc(C(C)(O)CO)s1)COC2` (stereo not shown) [Example 252, N-(amino(2-(1,2-dihydroxypropan-2-yl)thiazol-5-yl) (oxo)-λ^6-sulfaneylidene)-2-(4,6-diisopropyl-1,3-dihydroisobenzofuran-5-yl)acetamide], the IC50 is 1 to 5 µM.

In the case of `CCc1cc2c(c(C(C)C)c1CC(=O)N=S(N)(=O)c1cc(C(C)(C)O)cs1)COC2` (stereo not shown) [Example 245, N-(amino (4-(2-hydroxypropan-2-yl)thiophen-2-yl)(oxo)-λ^6-sulfaneylidene)-2-(6-ethyl-4-isopropyl-1,3-dihydroisobenzofuran-5-yl) acetamide], the IC50 lay in the range of 1 to 5 µM.

As for `CC(C)c1cc2c(c(C(C)C)c1CC(=O)N=S(N)(=O)c1cnc(C(C)(C)O)s1)CCC2` (stereo not shown) [Example 142, N-(amino(2-(2-hydroxypropan-2-yl)thiazol-5-yl)(oxo)-λ^6-sulfaneylidene)-2-(4,6-diisopropyl-2,3-dihydro-1H-inden-5-yl)acetamide], the IC50 lay in the range of 1 to 5 µM.

The same test, now with this note: Homo sapiens, THP-1, Table B2; 2% fetal bovine serum; cells printed as numeric bound; read-out: hTHP-1 IC50 (Average IC50 of compounds in hTHP-1 assay).
As to `CC(C)c1nc(C(F)(F)F)nc(C(C)C)c1CC(=O)N=S(N)(=O)c1cnc(C(C)(C)O)s1` (single isomer, unassigned) [Example 397, (R) or (S)-N-(amino(2-(2-hydroxypropan-2-yl)thiazol-5-yl)(oxo)-λ^6-sulfaneylidene)-2-(4,6-diisopropyl-2-(trifluoromethyl)pyrimidin-5-yl)acetamide], the IC50 is above 30 µM.

Still in this test, the particulars now being: Homo sapiens, THP-1, Table B2; 2% fetal bovine serum; class symbols; read-out: hTHP-1 IC50 (Average IC50 of compounds in hTHP-1 assay).
With `CC(C)c1cc(C#N)c(F)c(C(C)C)c1CC(=O)N=S(N)(=O)c1cnc(C(O)(CO)CO)s1` (stereo not shown) [Example 350, N-(amino(oxo)(2-(1,2,3-trihydroxypropan-2-yl)thiazol-5-yl)-λ^6-sulfaneylidene)-2-(4-cyano-3-fluoro-2,6-diisopropylphenyl)acetamide], the half-maximal inhibitory concentration (IC50) lay within 0.2 to 1 µM.

Regarding `CC(C)c1cc(F)cc(C(C)C)c1CC(=O)N=[S@](=O)(NC#N)c1sc(C(C)(C)O)nc1CO` [Example 369, (S)-N-(cyanamido(4-(hydroxymethyl)-2-(2-hydroxypropan-2-yl)thiazol-5-yl)(oxo)-λ^6-sulfaneylidene)-2-(4-fluoro-2,6-diisopropylphenyl)acetamide], the concentration for half-maximal inhibition (IC50) is 5 to 30 µM.

Consider `CCn1cc(F)c(S(N)(=O)=NC(=O)Cc2c(C(C)C)cc3c(c2C(C)C)OC(F)(F)O3)n1` (stereo not shown) [Example 394, N-(amino(1-ethyl-4-fluoro-1H-pyrazol-3-yl)(oxo)-λ^6-sulfaneylidene)-2-(2,2-difluoro-4,6-diisopropylbenzo[d][1,3]dioxol-5-yl)acetamide], for which the IC50 lay within 0.2 to 1 µM.

As to `CC(C)c1cc(C#N)c(F)c(C(C)C)c1CC(=O)N=S(=O)(NC#N)c1cnc(C(O)CO)s1` (stereo not shown) [Example 372, N-(cyanamido(2-(1,2-dihydroxyethyl)thiazol-5-yl)(oxo)-λ^6-sulfaneylidene)-2-(4-cyano-3-fluoro-2,6-diisopropylphenyl)acetamide], the concentration for half-maximal inhibition (IC50) was 5 to 30 µM.

Staying with this test, now noted: Homo sapiens, THP-1, read-out: hTHP-1 IC50 in 2% FBS, average IC50; hTHP-1 assay containing 2% fetal bovine serum.
For `Cc1cc(C(F)(F)F)cc(O)c1CC(=O)N=S(N)(=O)c1ccccc1` (stereo not shown) [Example 404, N-(amino(oxo)(phenyl)-λ^6-sulfaneylidene)-2-(2-hydroxy-6-methyl-4-(trifluoromethyl)phenyl)acetamide], the half-maximal inhibitory concentration (IC50) lay in the range of 5 to 30 µM.

Staying with this test, now noted: Table B1; 2% fetal bovine serum; class symbols; read-out: hTHP-1 IC50 (Average IC50 of compounds in hTHP-1 assay).
As for `CC(C)c1cc(-c2ccc3c(c2)OC(F)(F)O3)cc(C(C)C)c1CC(=O)N=S(N)(=O)c1ncc(C(C)(C)O)s1` (single isomer, unassigned) [Example 165, (S) or (R)-N-(amino(5-(2-hydroxypropan-2-yl)thiazol-2-yl)(oxo)-λ^6-sulfaneylidene)-2-(4-(2,2-difluorobenzo[d] [1,3]dioxol-5-yl)-2,6-diisopropylphenyl) acetamide], the IC50 is 1 to 5 µM.

As to `Cc1nc(C(C)(C)O)sc1S(N)(=O)=NC(=O)Cc1c(C(C)C)cc(C#N)cc1C(C)C` (single isomer, unassigned) [Example 61, (R)- or (S)-2-(4-cyano-2,6-diisopropylphenyl)-N-(2-(2-hydroxypropan-2-yl)-4-methylthiazole-5-sulfonimidoyl)acetamide], the half-inhibitory concentration (IC50) is 5 to 30 µM.

Regarding `Cc1ccc(-c2cc(C(C)C)c(CC(=O)N=S(N)(=O)c3ncc(C(C)(C)O)s3)c(C(C)C)c2)cc1C` (single isomer, unassigned) [Example 168, (R) or (S)-N-(amino(5-(2-hydroxypropan-2-yl)thiazol-2-yl)(oxo)-λ^6-sulfaneylidene)-2-(3,5-diisopropyl-3′,4'-dimethyl-[1,1′-biphenyl]-4-yl)acetamide], the IC50 was 0.2 to 1 µM.

Turning to `CCc1cc(OC(F)F)cc(C(C)C)c1CC(=O)N=S(N)(=O)c1sc(C(C)(C)O)cc1F` (single isomer, unassigned) [Example 78, (S)- or (R)-2-(4-(difluoromethoxy)-2-ethyl-6-isopropylphenyl)-N-(3-fluoro-5-(2-hydroxypropan-2-yl)thiophen-2-ylsulfonimidoyl)acetamide], the IC50 was in the range of 0.2 to 1 µM.

In the case of `COCc1cc(C(C)C)c(CC(=O)N=S(N)(=O)c2ncc(C(C)(C)O)s2)c(C(C)C)c1` (single isomer, unassigned) [Example 186, (S) or (R)-N-(amino(5-(2-hydroxypropan-2-yl)thiazol-2-yl)(oxo)-λ^6-sulfaneylidene)-2-(2,6-diisopropyl-4-(methoxymethyl)phenyl)acetamide], the IC50 was 5 to 30 µM.

On to `CCc1cc2c(c(C(C)C)c1CC(=O)N=S(N)(=O)c1sc(C(C)(C)O)cc1F)COC2` (single isomer, unassigned) [Example 297, (R) or (S)-N-(amino (3-fluoro-5-(2-hydroxypropan-2-yl)thiophen-2-yl)(oxo)-λ^6-sulfaneylidene)-2-(6-ethyl-4-isopropyl-1,3-dihydroisobenzofuran-5-yl)acetamide], for which the 50% inhibitory concentration (IC50) was 1 to 5 µM.

`CC(C)c1cc2c(c(C(C)C)c1CC(=O)N=S(N)(=O)c1sc(C(C)(C)O)cc1F)COC2` (single isomer, unassigned) [Example 322, (S) or (R)-N-(amino (3-fluoro-5-(2-hydroxypropan-2-yl)thiophen-2-yl)(oxo)-λ^6-sulfaneylidene)-2-(4,6-diisopropyl-1,3-dihydroisobenzofuran-5-yl)acetamide]: the half-maximal inhibitory concentration (IC50) lay within 5 to 30 µM.

Staying with this test, now noted: Table B2; 2% fetal bovine serum; class symbols; read-out: hTHP-1 IC50 (Average IC50 of compounds in hTHP-1 assay).
Turning to `CC(C)c1cc(C#N)cc(C(C)C)c1CC(=O)N=S(N)(=O)c1sc(C(C)(C)O)nc1CCO` (single isomer, unassigned) [Example 383, (R) or (S)-N-(amino(4-(2-hydroxyethyl)-2-(2-hydroxypropan-2-yl)thiazol-5-yl)(oxo)-λ^6-sulfaneylidene)-2-(4-cyano-2,6-diisopropylphenyl)acetamide], the IC50 lay in the range of 0.2 to 1 µM.
